Measured values as given in publication PMC11850616, “Nanomolar inhibitor of the galectin-8 N-terminal domain binds via a non-canonical cation-π interaction” (Communications Chemistry, 2025).
“And” between values parts separate entries of the source, which are not always exact repeats. Identical values can stand only once. Like-named read-outs stand apart in the source and are kept apart here.

Legend:
[1] = target: T1, Gal-3 (Homo sapiens, UniProt P17931); details: cited from earlier work
T1 construct: made in house
T1 sequence (P17931 whole entry): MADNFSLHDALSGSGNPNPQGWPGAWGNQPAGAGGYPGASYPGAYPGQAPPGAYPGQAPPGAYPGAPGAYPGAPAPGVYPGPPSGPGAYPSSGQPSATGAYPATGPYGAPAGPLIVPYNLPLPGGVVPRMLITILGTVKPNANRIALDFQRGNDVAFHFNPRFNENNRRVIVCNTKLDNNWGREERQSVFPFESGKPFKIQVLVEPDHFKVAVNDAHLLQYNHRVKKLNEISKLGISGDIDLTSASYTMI

[2] = target: T2, Gal-8N (Homo sapiens, UniProt O00214); experiment: ligand efficiency (LE) and ligand-lipophilicity efficiency (LLE) calculations; details: for LLE: from Gal-8N Kd and clogP; for LE: from Gal-8N Kd and number of non-hydrogen atoms
T2 construct: consisting of residues 4-158 was produced by Lund Protein Production Platform; made in house; host or cells: E. coli TUNER(DE3)
T2 sequence (O00214 4-158): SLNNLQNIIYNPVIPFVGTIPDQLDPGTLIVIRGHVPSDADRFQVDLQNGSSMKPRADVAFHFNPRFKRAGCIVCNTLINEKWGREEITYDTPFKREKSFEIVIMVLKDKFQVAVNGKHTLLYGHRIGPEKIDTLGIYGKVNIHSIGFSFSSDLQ

[3] = target: T3, Gal-1 (Homo sapiens, UniProt P09382); experiment: competitive fluorescence polarisation assay, Gal-1; assay type: binding; details: for Kd: competitive FP, mean ± SEM of n = 4 to 8, 20 °C; for Gal-1 selectivity ratio Kd (Gal-1)/Kd (Gal-8N): ratio of FP Kd values
T3 construct: made in house
T3 sequence (P09382 whole entry): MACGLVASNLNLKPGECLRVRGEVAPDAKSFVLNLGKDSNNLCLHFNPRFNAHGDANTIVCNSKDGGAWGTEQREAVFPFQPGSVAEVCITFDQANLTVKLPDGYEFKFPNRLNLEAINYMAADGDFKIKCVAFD
Method: (§1) Human galectins-1, -3, and -8N were expressed and purified as described previously[8],[23],[24]. Competitive fluorescence polarization assays were performed with a PHERAstar FS plate reader with software PHERAstar Mars version 2.10 R3 (BMG, Offenburg, Germany) and Tecan Spark multimode microplate reader (Tecan Trading AG, Switzerland), where a fluorescence anisotropy of fluorescent-tagged probes was measured by excitation at 485 nm and emission at 520 nm. Experiments were performed at 20 °C with Gal-1 at 0.5 µM, Gal-3 at 0.2 µM, and Gal-8N at 0.4 µM. Fluorescent probes used for experiments were 3,3′-dideoxy-3-[4-(fluorescein-5-yl-carbonylaminomethyl)-1H-1,2,3-triazol-1-yl]-3′-(3,5-di-methoxybenzamido)-1,1′-sulfanediyl-di-β-D-galactopyranoside at 0.02 µM for Gal-1 and -3 and 2-(fluorescein-5-yl-carbonylamino)ethyl β-D-galactopyranosyl(1-4)-2-acetamido-2-deoxy-β-D-glucopyranosyl(1–3)-β-D-galactopyranosyl(1–4)-β-D-glucopyranoside at 0.1 µM for Gal-8N in each well. Compounds were first dissolved in pure DMSO at 20 mM concentration and later diluted in 5% DMSO in PBS solution to 5-7 different concentrations. Each concentration was tested in duplicate. The highest inhibitor concentrations tested were 1.5 mM. The average values of Kd and SEM (standard error mean) were calculated from 4 to 8 duplicate measurements, showing 10–90% inhibition.

[4] = target: T1, Gal-3; experiment: competitive fluorescence polarisation assay, Gal-3; assay type: binding; details: for Kd: competitive FP, mean ± SEM of n = 4 to 8, 20 °C, read-out: Kd Gal-3; for Gal-3 selectivity ratio Kd (Gal-3)/Kd (Gal-8N): ratio of FP Kd values
Method: as §1

[5] = target: T4, Gal-8C (Homo sapiens, UniProt O00214); experiment: competitive fluorescence polarisation assay, Gal-8C; assay type: binding; details: for Kd: competitive FP, mean ± SEM of n = 4 to 8; for Gal-8C selectivity ratio Kd (Gal-8C)/Kd (Gal-8N): ratio of FP Kd values
T4 construct: than to the C-terminal domain (Gal-8C)
T4 sequence (O00214 187-317 limits assumed): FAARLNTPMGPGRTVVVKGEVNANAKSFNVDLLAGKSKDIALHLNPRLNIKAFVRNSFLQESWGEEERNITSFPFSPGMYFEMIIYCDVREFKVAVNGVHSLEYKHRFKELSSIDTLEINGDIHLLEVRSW

[6] = target: T5, Gal-8N (galectin-8 N-terminal domain) (Homo sapiens, UniProt O00214); experiment: competitive fluorescence polarisation assay, Gal-8N; assay type: binding; details: competitive FP, mean ± SEM of n = 4 to 8, 20 °C; read-out: Kd Gal-8N
T5 construct: made in house
T5 sequence (O00214 19-152 limits assumed): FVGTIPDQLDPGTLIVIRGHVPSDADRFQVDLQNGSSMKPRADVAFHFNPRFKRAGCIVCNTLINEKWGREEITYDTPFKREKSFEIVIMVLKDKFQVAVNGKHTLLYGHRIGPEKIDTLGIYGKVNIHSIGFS
Method: as §1

[7] = target: T2, Gal-8N; experiment: isothermal titration calorimetry (ITC), binding to Gal-8N; details: for -TΔS / Kd / ΔG / ΔH: 25 °C, PBS buffer, 1:1 binding model, n = 2; for ΔΔH compared to 1: difference vs compound 1
Method: Isothermal titration calorimetry (ITC) experiments were conducted using a Microcal PEAQ-ITC isothermal titration calorimeter (Malvern Instruments, Malvern Panalytical Ltd) at 25 °C. Lyophilized Gal-8N was first dissolved in PBS buffer (with a 4.3 mM β-mercaptoethanol) with a pH = 7.4 and Gal-8N was dialyzed with a 0.5–3 mL Slide-A-Lyzer™ 7k MWCO Dialysis Cassette in the same buffer. To remove residual lactose, Gal-8N was additionally purified using Superdex 75 Increase column equilibrated in PBS with 5% DMSO. Fractions containing Gal-8N were collected and concentrated with Amicon® Ultra-0.5 Centrifugal Filter Device with a 10k MWCO to a final concentration of about 40 µM. A280 was measured using the NanoDrop^TM One Microvolume UV-VIS spectrophotometer and the concentration of Gal-8N was calculated (ε = 11460 L mol^−1 cm^−1 was used). 16 mM stock solutions of 1, 11, and 29 were prepared in pure DMSO. The 16 mM stock solutions were diluted to 800 μM with pure PBS and then to the final concentration of 560 μM (the final content of DMSO was 5%). Titrations were performed with 19 injections of Gal-8N inhibitors 1, 11 (560 μM) and 29 (800 μM) with a following settings: reference power = 10.0 µcal s^−1, feedback = high, stir speed = 750, Initial delay = 100 s, first spacing = 200 s, the other spacings = 150 s.
Raw thermograms were exported and integrated with the NITPIC (version 2.0.7)[43] and then analyzed with SEDPHAT (version 15.2)[44],[45]. Parameter and error analysis were performed using the Monte-Carlo approach for nonlinear regression with 1000 iterations as implemented in SEDPHAT.

Row | SMILES | Gal-3 selectivity ratio Kd (Gal-3)/Kd (Gal-8N) ([1]; selectivity for Gal-8N over Gal-3 (fold)) | LLE [2] | LE [2] | Kd [3] | Kd [4] | Gal-3 selectivity ratio Kd (Gal-3)/Kd (Gal-8N) [4] | Kd [5] | Gal-8C selectivity ratio Kd (Gal-8C)/Kd (Gal-8N) [5] | Kd [6] | -TΔS [7] | Kd [7] | ΔG [7] | ΔH [7] | ΔΔH compared to 1 [7] | ΔΔH compared to 29 ([7]; difference vs compound 29) | Kd ([1]; read-out: affinity for Gal-3) | Gal-1 selectivity ratio Kd (Gal-1)/Kd (Gal-8N) [3]
1 | Cn1c(CO[C@@H]2C=CO[C@H](CO)[C@@H]2O)nc2ccc(C(=O)O)cc21 [Compound 3] | 14 |  |  |  |  |  |  |  |  |  |  |  |  |  |  |  | 
2 | C#CCO[C@@H]1[C@@H](OCc2nc3ccc(C(=O)O)cc3n2C)[C@@H](O)[C@@H](CO)O[C@@H]1Sc1ccc(Cl)c(Cl)c1 [Compound 11] |  | 2.01 | 0.226 (kcal/mol)/heavy atom | 10 ± 0.71 µM | 1.4 ± 0.2 µM | 1.75 | 390 ± 14 µM | 488 | 0.8 ± 0.09 µM | 6.69 ± 2.2 kcal/mol and 6.69 kcal/mol | 1.3 µM | -8.01 ± 0.12 kcal/mol and -8.01 kcal/mol | -14.6 ± 1.9 kcal/mol and -14.6 kcal/mol | –17 kJ mol^−1 | –4 kJ mol^−1 |  | 
3 | O=C[C@H](O)[C@@H](O)[C@@H](O)[C@H](O)CO [D-galactose] |  |  |  |  |  |  |  |  |  |  |  |  |  |  |  | ~5000 µM | 
4 | Cn1c(CO[C@H]2[C@@H](O)[C@@H](CO)O[C@H](Sc3ccc(Cl)c(Cl)c3)[C@@H]2OCc2ccc(Cl)c(Cl)c2)nc2ccc(C(=O)O)cc21 [Compound 8e] |  | -1.38 | 0.171 (kcal/mol)/heavy atom | 20 ± 0.84 µM | 12 ± 3 µM | 2.8 | 577 ± 4 µM | 134 | 4.3 ± 0.4 µM |  |  |  |  |  |  |  | 4.7
5 | Cn1c(CO[C@H]2[C@@H](O)[C@@H](CO)O[C@H](Sc3ccc(Cl)c(Cl)c3)[C@@H]2OCC(=O)O)nc2ccc(C(=O)O)cc21 [Compound 29] |  | 2.84 | 0.227 (kcal/mol)/heavy atom | 49 ± 3.6 µM | 3.3 ± 0.2 µM | 6.6 | 449 ± 39 µM | 898 | 0.5 ± 0.03 µM | 5.26 ± 0.72 kcal/mol and 5.26 kcal/mol | 0.6 µM | -8.44 ± 0.096 kcal/mol and -8.44 kcal/mol | -13.6 ± 0.72 kcal/mol and -13.6 kcal/mol | –13 kJ mol^−1 |  |  | 98
6 | Cn1c(CO[C@H]2[C@@H](O)[C@@H](CO)O[C@H](Sc3ccc(Cl)c(Cl)c3)[C@@H]2OCC2CCC2)nc2ccc(C(=O)O)cc21 [Compound 25] |  | 0.593 | 0.204 (kcal/mol)/heavy atom | 16 ± 0.5 µM | 9.4 ± 1.9 µM | 5.9 | 383 ± 21 µM | 239 | 1.6 ± 0.07 µM |  |  |  |  |  |  |  | 10
